Reference: ChEMBL document CHEMBL5053469, “Heterocyclic GTP Cyclohydrolase 1 Inhibitors For the Treatment of Pain” (2012)

Experiments:
[1] = Inhibition of recombinant rat GCH1 assessed as reduction in 7,8-dihydroneoptrein 3'-triphosphate formation using GTP as substrate incubated for 15 mins by HPLC and fluorescence detection assay
[2] = Inhibition of rat aortic smooth muscle cell GCH1 expressed in Escherichia coli assessed as reduction in 7,8-dihydroneoptrein 3'-triphosphate formation using GTP as substrate incubated for 1 hr by LC/MS assay

SMILES	IC50 [1] [µM]	IC50 [2] [µM]
Nc1nc2[nH]c(S)nc2c(=O)[nH]1	24	
CC1CCCCC1NC(=O)CSc1nc2c(O)nc(N)nc2[nH]1 (stereo not drawn)		89
Nc1nc(O)c2nc(SCC(=O)Nc3ccc(S(=O)(=O)N4CCCCCC4)cc3)[nH]c2n1		127
